Ki and Activity data for four compounds are collected here from ChEMBL document CHEMBL1137376 (J Med Chem, 2006).

Active and inactive are the calls of the source. The calls are words filed in the database; no cut-off is given here. Non-standard residues stand in square brackets, D forms with d. Residues, ends and D or L forms follow the SMILES beside them. Phe(4-NH2) = Nc1ccc(C[C@H](N)C(=O)O)cc1 Where only a bound is given, the exact number is not on record here.

Assay [1] has as its target T1, Angiotensin II receptor (AT-1) type-1 (Rattus norvegicus, UniProt P29089+P25095).
T1 sequence (P29089 whole entry): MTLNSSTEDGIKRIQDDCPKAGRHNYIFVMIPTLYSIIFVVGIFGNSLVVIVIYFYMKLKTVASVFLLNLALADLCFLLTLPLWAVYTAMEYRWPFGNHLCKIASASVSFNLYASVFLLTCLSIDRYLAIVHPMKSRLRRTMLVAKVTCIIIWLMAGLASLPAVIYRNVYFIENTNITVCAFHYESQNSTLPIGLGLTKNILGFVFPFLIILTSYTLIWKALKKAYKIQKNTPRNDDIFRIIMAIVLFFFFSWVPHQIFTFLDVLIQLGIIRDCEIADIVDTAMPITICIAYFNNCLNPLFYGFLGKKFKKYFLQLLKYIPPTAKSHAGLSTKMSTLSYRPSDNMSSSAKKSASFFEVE
T1 sequence (P25095 whole entry): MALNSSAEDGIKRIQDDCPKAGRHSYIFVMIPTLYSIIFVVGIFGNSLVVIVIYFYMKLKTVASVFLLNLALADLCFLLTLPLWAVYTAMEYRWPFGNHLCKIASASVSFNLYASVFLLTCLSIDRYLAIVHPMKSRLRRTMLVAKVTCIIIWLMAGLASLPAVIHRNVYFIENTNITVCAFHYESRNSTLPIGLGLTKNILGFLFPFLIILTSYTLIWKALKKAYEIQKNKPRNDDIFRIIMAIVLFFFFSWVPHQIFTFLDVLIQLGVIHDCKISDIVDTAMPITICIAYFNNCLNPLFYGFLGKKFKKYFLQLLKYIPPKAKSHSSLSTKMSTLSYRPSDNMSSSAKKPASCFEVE
Nature of the assay: Displacement of [125I]Ang2 from AT1 receptor in rat liver membrane. The class given is cell membranes. In general terms: Loss of bound radioactivity is the signal in a displacement assay; it reports binding, not function.

The target of assay [2] is T2, Type-1 angiotensin II receptor (Oryctolagus cuniculus) (UniProt P34976).
T2 sequence (whole entry): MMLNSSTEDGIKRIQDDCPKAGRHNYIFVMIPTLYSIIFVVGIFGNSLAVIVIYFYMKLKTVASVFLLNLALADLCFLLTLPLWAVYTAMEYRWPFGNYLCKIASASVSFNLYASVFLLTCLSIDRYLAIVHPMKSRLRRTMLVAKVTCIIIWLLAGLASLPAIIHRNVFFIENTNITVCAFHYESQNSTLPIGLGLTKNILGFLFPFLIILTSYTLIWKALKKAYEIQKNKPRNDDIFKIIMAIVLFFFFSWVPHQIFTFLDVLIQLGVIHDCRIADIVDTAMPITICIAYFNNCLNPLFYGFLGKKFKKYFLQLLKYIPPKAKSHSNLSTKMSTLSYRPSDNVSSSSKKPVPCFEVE
Nature of the assay: Agonist activity at AT1 receptor measured as contraction of rabbit thoracic aorta at 3.0 nM to 3.0 uM. Type of assay: functional, tissue-based.

Consider `CC[C@H](C)[C@@H]1Nc2c(Cc3ccc(O)cc3)cc(NC(=O)[C@H](CCCN=C(N)N)NC(=O)[C@@H](N)CC(=O)O)cc2CN(CC(=O)N[C@@H](Cc2c[nH]cn2)C(=O)N2CCC[C@H]2C(=O)N[C@@H](Cc2ccccc2)C(=O)O)C1=O`, for which the Ki (as a rule, the dissociation constant of the complex between target and ligand, obtained from inhibition or displacement) in assay [1] is listed as 1668 nM.

Regarding `CC[C@H](C)[C@@H]1Nc2c(Cc3ccc(O)cc3)cc(NC(=O)[C@H](CCCN=C(N)N)NC(=O)[C@@H](N)CC(=O)O)cc2CN(CC(=O)N2CCC[C@H]2C(=O)N[C@@H](Cc2ccccc2)C(=O)O)C1=O`, the inhibition constant Ki in assay [1] is 2108 nM.

Consider `CC[C@H](C)[C@H](NC(=O)[C@H](Cc1ccc(O)cc1)NC(=O)[C@@H](NC(=O)[C@H](CCCN=C(N)N)NC(=O)[C@@H](N)CC(=O)O)C(C)C)C(=O)N[C@@H](Cc1ccc(N)cc1)C(=O)N1CCC[C@H]1C(=O)N[C@@H](Cc1ccccc1)C(=O)O` (H-DRVYI[Phe(4-NH2)]PF-OH), for which the inhibition constant Ki in assay [1] is on record as more than 10000 nM.

Compound `CC[C@H](C)[C@@H]1Nc2c(Cc3ccc(O)cc3)cc(NC(=O)[C@@H](NC(=O)[C@H](CCCN=C(N)N)NC(=O)[C@@H](N)CC(=O)O)C(C)C)cc2CN(CC(=O)N[C@@H](Cc2c[nH]cn2)C(=O)N2CCC[C@H]2C(=O)N[C@@H](Cc2ccccc2)C(=O)O)C1=O` returned a Ki in assay [1] of 14.9 nM. For the same compound, in assay [2], the outcome was inactive.
